Laboratory results taken from the supplement of paper PMC5908809.

Assays:
[1] = system: normal NK cells expanded with K562-aAPC; assay: drug sensitivity score (DSS) (DSS units); higher = more sensitive; extreme values may be limits of the assay; conditions: 72 h; IL-2 2.5 ng/mL
Procedure: (§1)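 Drug sensitivity and resistance testing on K562-aAPC-expanded normal NK cells: 5 concentrations (10-fold steps over a 10,000-fold range), 72 h at 37 °C, viability by CellTiter-Glo normalised to DMSO and benzethonium chloride controls; DSS from the fitted curve.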

[2] = system: normal NK cells expanded with K562-aAPC; assay: percent inhibition of viability; higher = more inhibition; conditions: 72 h, IL-2 2.5 ng/mL
Procedure: as §1

[3] = system: normal primary NK cells, pool 2 (3 donors) (IL-2 2.5 ng/mL); assay: drug sensitivity score (DSS) (DSS units); higher = more sensitive; extreme values may be limits of the assay; conditions: 72 h
NKL (IL-2 2.5 ng/mL) [4] = assay: as above; conditions: 72 h
NK-92 (IL-2 2.5 ng/mL) [5] = assay: as above; conditions: 72 h
[6] = system: normal primary NK cells, pool 3 (3 donors) (IL-2 2.5 ng/mL); assay: as above; conditions: 72 h
YT (IL-2 2.5 ng/mL) [7] = assay: as above; conditions: 72 h
NK-YS (IL-2 2.5 ng/mL) [8] = assay: as above; conditions: 72 h
[9] = system: normal primary NK cells, pool 1 (3 donors) (IL-2 2.5 ng/mL); assay: as above; conditions: 72 h
IMC-1 (IL-2 20 ng/mL) [10] = assay: as above; conditions: 72 h
DERL-7 (IL-2 2.5 ng/mL) [11] = assay: as above; conditions: 72 h
[12] = system: normal primary NK cells, pool 1 (3 donors), resting (IL-2 0 ng/mL); assay: as above; conditions: 72 h
KHYG-1 (IL-2 2.5 ng/mL) [13] = assay: as above; conditions: 72 h
KAI3 (IL-2 2.5 ng/mL) [14] = assay: as above; conditions: 72 h
SNK-6 (IL-2 2.5 ng/mL) [15] = assay: as above; conditions: 72 h
[16] = system: normal primary NK cells, pool 2 (3 donors) (IL-2 2.5 ng/mL); assay: percent inhibition of viability; higher = more inhibition; conditions: 72 h
NKL (IL-2 2.5 ng/mL) [17] = assay: as above; conditions: 72 h
NK-92 (IL-2 2.5 ng/mL) [18] = assay: as above; conditions: 72 h
[19] = system: normal primary NK cells, pool 3 (3 donors) (IL-2 2.5 ng/mL); assay: as above; conditions: 72 h
YT (IL-2 2.5 ng/mL) [20] = assay: as above; conditions: 72 h
NK-YS (IL-2 2.5 ng/mL) [21] = assay: as above; conditions: 72 h
[22] = system: normal primary NK cells, pool 1 (3 donors) (IL-2 2.5 ng/mL); assay: as above; conditions: 72 h
IMC-1 (IL-2 20 ng/mL) [23] = assay: as above; conditions: 72 h
DERL-7 (IL-2 2.5 ng/mL) [24] = assay: as above; conditions: 72 h
[25] = system: normal primary NK cells, pool 1 (3 donors), resting (IL-2 0 ng/mL); assay: as above; conditions: 72 h
KHYG-1 (IL-2 2.5 ng/mL) [26] = assay: as above; conditions: 72 h
KAI3 (IL-2 2.5 ng/mL) [27] = assay: as above; conditions: 72 h
SNK-6 (IL-2 2.5 ng/mL) [28] = assay: as above; conditions: 72 h
NK-92 (IL-2 2.5 ng/mL) [29] = assay: relative IC50 (inflection point of fitted viability curve, relative to fitted max inhibition); higher = less sensitive; conditions: 72 h
Procedure: (§2)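 Drug sensitivity and resistance testing: 5 concentrations over a 10,000-fold range, 72 h at 37 °C, viability by CellTiter-Glo normalised to DMSO and benzethonium chloride controls. IC50 is the inflection point of a logistic fit (min fixed at 0, max fitted), so it is relative to the fitted maximal inhibition. Kept only where fitted max inhibition is at least 50%.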

NK-YS (IL-2 2.5 ng/mL) [30] = assay: as above; conditions: 72 h
Procedure: as §2

IMC-1 (IL-2 20 ng/mL) [31] = assay: as above; conditions: 72 h
Procedure: as §2

DERL-7 (IL-2 2.5 ng/mL) [32] = assay: as above; conditions: 72 h
Procedure: as §2

KHYG-1 (IL-2 2.5 ng/mL) [33] = assay: as above; conditions: 72 h
Procedure: as §2

SNK-6 (IL-2 2.5 ng/mL) [34] = assay: as above; conditions: 72 h
Procedure: as §2

NKL (IL-2 2.5 ng/mL) [35] = assay: as above; conditions: 72 h
Procedure: as §2

COc1cc2c(cc1O)CC[C@@H]1[C@@H]2CC[C@]2(C)[C@@H](O)CC[C@@H]12 [2-methoxyestradiol] (max concentration tested 10000 nM)
drug sensitivity score [1]: 4.38
percent inhibition of viability ([2]; 1 nM): -7.6%
percent inhibition of viability ([2]; 10 nM): -11.6%
percent inhibition of viability ([2]; 100 nM): -10.8%
percent inhibition of viability ([2]; 1000 nM): 9.36%
percent inhibition of viability ([2]; 10000 nM): 53%
drug sensitivity score [3]: 0.33
drug sensitivity score (NKL (IL-2 2.5 ng/mL) [4]): 17.5
drug sensitivity score (NK-92 (IL-2 2.5 ng/mL) [5]): 21.1
drug sensitivity score [6]: 0
drug sensitivity score (YT (IL-2 2.5 ng/mL) [7]): 15.9
drug sensitivity score (NK-YS (IL-2 2.5 ng/mL) [8]): 15
drug sensitivity score [9]: 1.6
drug sensitivity score (IMC-1 (IL-2 20 ng/mL) [10]): 12.8
drug sensitivity score (DERL-7 (IL-2 2.5 ng/mL) [11]): 14.2
drug sensitivity score [12]: 1.87
drug sensitivity score (KHYG-1 (IL-2 2.5 ng/mL) [13]): 17.6
drug sensitivity score (KAI3 (IL-2 2.5 ng/mL) [14]): 9.37
drug sensitivity score (SNK-6 (IL-2 2.5 ng/mL) [15]): 14
percent inhibition of viability ([16]; 1 nM): -5.21%
percent inhibition of viability ([16]; 10 nM): -10.5%
percent inhibition of viability ([16]; 100 nM): -5.24%
percent inhibition of viability ([16]; 1000 nM): 0.1%
percent inhibition of viability ([16]; 10000 nM): 16.3%
percent inhibition of viability (NKL (IL-2 2.5 ng/mL) [17]; 1 nM): -3.96%
percent inhibition of viability (NKL (IL-2 2.5 ng/mL) [17]; 10 nM): -6.41%
percent inhibition of viability (NKL (IL-2 2.5 ng/mL) [17]; 100 nM): 12.5%
percent inhibition of viability (NKL (IL-2 2.5 ng/mL) [17]; 1000 nM): 85.8%
percent inhibition of viability (NKL (IL-2 2.5 ng/mL) [17]; 10000 nM): 90.6%
percent inhibition of viability (NK-92 (IL-2 2.5 ng/mL) [18]; 1 nM): -11.8%
percent inhibition of viability (NK-92 (IL-2 2.5 ng/mL) [18]; 10 nM): -5.92%
percent inhibition of viability (NK-92 (IL-2 2.5 ng/mL) [18]; 100 nM): 24.8%
percent inhibition of viability (NK-92 (IL-2 2.5 ng/mL) [18]; 1000 nM): 96.2%
percent inhibition of viability (NK-92 (IL-2 2.5 ng/mL) [18]; 10000 nM): 92.4%
percent inhibition of viability ([19]; 1 nM): -10.4%
percent inhibition of viability ([19]; 10 nM): -14%
percent inhibition of viability ([19]; 100 nM): -8.74%
percent inhibition of viability ([19]; 1000 nM): -10.1%
percent inhibition of viability ([19]; 10000 nM): 2.72%
percent inhibition of viability (YT (IL-2 2.5 ng/mL) [20]; 1 nM): -5.93%
percent inhibition of viability (YT (IL-2 2.5 ng/mL) [20]; 10 nM): 2.82%
percent inhibition of viability (YT (IL-2 2.5 ng/mL) [20]; 100 nM): 1.11%
percent inhibition of viability (YT (IL-2 2.5 ng/mL) [20]; 1000 nM): 86.5%
percent inhibition of viability (YT (IL-2 2.5 ng/mL) [20]; 10000 nM): 92.7%
percent inhibition of viability (NK-YS (IL-2 2.5 ng/mL) [21]; 1 nM): -6.42%
percent inhibition of viability (NK-YS (IL-2 2.5 ng/mL) [21]; 10 nM): -2.65%
percent inhibition of viability (NK-YS (IL-2 2.5 ng/mL) [21]; 100 nM): 5.43%
percent inhibition of viability (NK-YS (IL-2 2.5 ng/mL) [21]; 1000 nM): 77.6%
percent inhibition of viability (NK-YS (IL-2 2.5 ng/mL) [21]; 10000 nM): 66%
percent inhibition of viability ([22]; 1 nM): -5.08%
percent inhibition of viability ([22]; 10 nM): 0.22%
percent inhibition of viability ([22]; 100 nM): -0.63%
percent inhibition of viability ([22]; 1000 nM): 10%
percent inhibition of viability ([22]; 10000 nM): 19.8%
percent inhibition of viability (IMC-1 (IL-2 20 ng/mL) [23]; 1 nM): -3.9%
percent inhibition of viability (IMC-1 (IL-2 20 ng/mL) [23]; 10 nM): 0.72%
percent inhibition of viability (IMC-1 (IL-2 20 ng/mL) [23]; 100 nM): -4.99%
percent inhibition of viability (IMC-1 (IL-2 20 ng/mL) [23]; 1000 nM): 63.4%
percent inhibition of viability (IMC-1 (IL-2 20 ng/mL) [23]; 10000 nM): 98.5%
percent inhibition of viability (DERL-7 (IL-2 2.5 ng/mL) [24]; 1 nM): -1.82%
percent inhibition of viability (DERL-7 (IL-2 2.5 ng/mL) [24]; 10 nM): 1.54%
percent inhibition of viability (DERL-7 (IL-2 2.5 ng/mL) [24]; 100 nM): 2.89%
percent inhibition of viability (DERL-7 (IL-2 2.5 ng/mL) [24]; 1000 nM): 73.2%
percent inhibition of viability (DERL-7 (IL-2 2.5 ng/mL) [24]; 10000 nM): 98.9%
percent inhibition of viability ([25]; 1 nM): -17.5%
percent inhibition of viability ([25]; 10 nM): -7.16%
percent inhibition of viability ([25]; 100 nM): 17.8%
percent inhibition of viability ([25]; 1000 nM): 3.53%
percent inhibition of viability ([25]; 10000 nM): 29.8%
percent inhibition of viability (KHYG-1 (IL-2 2.5 ng/mL) [26]; 1 nM): -6.84%
percent inhibition of viability (KHYG-1 (IL-2 2.5 ng/mL) [26]; 10 nM): -2.25%
percent inhibition of viability (KHYG-1 (IL-2 2.5 ng/mL) [26]; 100 nM): -0.37%
percent inhibition of viability (KHYG-1 (IL-2 2.5 ng/mL) [26]; 1000 nM): 97.8%
percent inhibition of viability (KHYG-1 (IL-2 2.5 ng/mL) [26]; 10000 nM): 97.9%
percent inhibition of viability (KAI3 (IL-2 2.5 ng/mL) [27]; 1 nM): -6.2%
percent inhibition of viability (KAI3 (IL-2 2.5 ng/mL) [27]; 10 nM): -3.7%
percent inhibition of viability (KAI3 (IL-2 2.5 ng/mL) [27]; 100 nM): 1.79%
percent inhibition of viability (KAI3 (IL-2 2.5 ng/mL) [27]; 1000 nM): 50%
percent inhibition of viability (KAI3 (IL-2 2.5 ng/mL) [27]; 10000 nM): 57.4%
percent inhibition of viability (SNK-6 (IL-2 2.5 ng/mL) [28]; 1 nM): 15.9%
percent inhibition of viability (SNK-6 (IL-2 2.5 ng/mL) [28]; 10 nM): 5.08%
percent inhibition of viability (SNK-6 (IL-2 2.5 ng/mL) [28]; 100 nM): 4.83%
percent inhibition of viability (SNK-6 (IL-2 2.5 ng/mL) [28]; 1000 nM): 72.8%
percent inhibition of viability (SNK-6 (IL-2 2.5 ng/mL) [28]; 10000 nM): 66.2%

O=C(Nc1cccc(Cl)c1)Nc1ncc(CCNc2ncnc3ccsc23)s1 [SNS-314]
relative IC50 (NK-92 (IL-2 2.5 ng/mL) [29]): 61.3 nM
relative IC50 (NK-YS (IL-2 2.5 ng/mL) [30]): 37.9 nM
relative IC50 (IMC-1 (IL-2 20 ng/mL) [31]): 201 nM
relative IC50 (DERL-7 (IL-2 2.5 ng/mL) [32]): 28.1 nM
relative IC50 (KHYG-1 (IL-2 2.5 ng/mL) [33]): 12.4 nM
relative IC50 (SNK-6 (IL-2 2.5 ng/mL) [34]): 10.5 nM

Cn1cnc2c(F)c(Nc3ccc(Br)cc3Cl)c(C(=O)NOCCO)cc21 [Selumetinib]
relative IC50 (NKL (IL-2 2.5 ng/mL) [35]): 436 nM
relative IC50 (DERL-7 (IL-2 2.5 ng/mL) [32]): 136 nM
relative IC50 (KHYG-1 (IL-2 2.5 ng/mL) [33]): 606 nM
relative IC50 (SNK-6 (IL-2 2.5 ng/mL) [34]): > 10000 nM
